Reference: patent publication US11864555B2, “Soil application of crop protection agents” (PIONEER HI-BRED INTERNATIONAL, INC., priority 2017, dated 2024)
Blank lines part the entries; values can stand above or below the compound they belong to.

Tests used:
[1] = cited from earlier work
[2] = Aerobic soil degradation of cyantraniliprole in loam soil; format: physicochemical; conditions: 90 days, pH 5.7
Experimental: Loam soil had 29% sand, 50% silt, and 21% clay with 2.9% organic matter and a pH of 5.7. […] Soil (20.0 to 50 g) was weighed into individual glass containers and moisture was adjusted to field moisture capacity at approximately 27% by weight by adding de-ionized water to the containers. Afterward, the containers were covered with breathable tape and pre-incubated inside a temperature-controlled incubator at 25° C. for 6 days. The tape allowed free oxygen exchange between the container headspace and ambient air while minimizing soil water loss due to evaporation. […] The incubator temperature was monitored by a digital thermometer and Hobo data logger, and soil water loss was monitored by weighing each sample container during the experiment. […] Soil moisture content was brought back to field capacity once every 1-2 weeks by adding de-ionized water equivalent to the amount of moisture that was lost, monitored by weighing each container every week.
At sampling intervals of 0, 3, 7, 14, 28, 56 and 90 days, three containers from each treatment were removed from the incubator, and the 5 cyantraniliprole-containing particles were collected and transferred to 100 mL polypropylene bottles for extraction. […] Cyantraniliprole was separated by HPLC and quantified by UV detection at 220 nm using an external calibration curve of an analytical standard.

[3] = format: in vivo, soybean; conditions: delivered via the CRYSTAL GREEN particles
Experimental: The procedure used for Bead #1 was repeated, using CRYSTAL GREEN® fertilizer and the pesticide used was 50% chlorantraniliprole insecticide treatment. Analysis of the amount of chlorantraniliprole for Bead #14 was determined to be 2.15 μg chlorantraniliprole per milligram of bead. Individual rhizotron growth chambers were used as the test apparatus as described before. Beads #13 and 14, or the control solutions were applied to the center area of the soil plug at about 4 mm depth. All the rhizotron chambers were then transferred to the growth room and fit to black utility boxes with precut 4-inch-depth notches located on the left and right rim of the boxes, allowing the chambers to set at about 90 degree upright position. […]
The rhizotrons were maintained in a growth chamber with controlled temperature and light with a 14-hour day/10-hour night diurnal cycle. […] The amount of water or nutrient used was recorded. Plant growth stages were also recorded and photographed periodically. […]
Plant leaflets were harvested 3 times at 24 days (R1 growth stage), 38 days (R4), and 49 days (R5.5) after planting for quantifying the pesticide concentrations. […] Each CPC was quantified by LC-MSMS method using electro-spray positive ionization mode. […] Remaining soil associated with the dried roots was removed and root weight was measured using an analytical balance.

[4] = Aerobic soil degradation of cyantraniliprole in Tama soil; format: physicochemical
Experimental: Aerobic soil degradation of cyantraniliprole in the various beads was determined versus a stock aqueous solution by following the changes in cyantraniliprole concentration over time.
Tama soil (clay-loam soil) was collected and stored in a refrigerator prior to use. […] Soil (10.0 to 68.3 grams) was weighted into glass jars or polypropylene vials and the moisture content was adjusted to 32.4% (Field capacity for this soil) by adding deionized water to the containers. The containers were covered with tape and pre-incubated inside a temperature controlled incubator at 25° C. for 4 days. […] The incubator temperature was monitored by a digital thermometer, and soil water loss was monitored by weighing each sample container during the experiment. […]
At sampling intervals of 0, 3, 7, 14, 21, 28, 35, 56, 100 and 120 days, three containers from each treatment were removed from the incubator, and the four cyantraniliprole-containing particles or pellets in each container were collected and transferred to 100 mL polypropylene bottles for extraction. […] After the overnight extraction, the extracts were allowed to settle and the supernatant was filtered through 0.4 μm pore size polypropylene filters and stored in a −20° C. freezer before quantifying cyantraniliprole. […]

Structure (SMILES): CO/C=C(/C(=O)OC)c1ccccc1COc1cccc(C(F)(F)F)n1 [Picoxystrobin]
water solubility [1]: 3.25 milligrams/liter

Structure (SMILES): CNC(=O)c1cc(C#N)cc(C)c1NC(=O)c1cc(Br)nn1-c1ncccc1Cl [Control E, Cyantraniliprole]
cyantraniliprole degraded by day 90 [2]: ~79%

concentrations in leaf samples averaged from 24 to 49 days [3]: 0.097 μg/gram fresh leaves
Structure (SMILES): CNC(=O)c1cc(Cl)cc(C)c1NC(=O)c1cc(Br)nn1-c1ncccc1Cl [Chlorantraniliprole]

Structure (SMILES): CNC(=O)c1cc(C#N)cc(C)c1NC(=O)c1cc(Br)nn1-c1ncccc1Cl [stock solution, cyantraniliprole]
cyantraniliprole degraded by day 100 ([4]; 100 days, pH 5.8): ~76% | half-life of biodegradation by soil microbes ([4]; Tama soil, 25° C., aerobic): approximately 43 days
